Experimental data as given in PubChem BioAssay AID330 (DTP/NCI, 2004).
Several values for one entry are separate records, joined by “and”; a condition that tells them apart may be missing. Equal values may be shown once. Toxic doses and inconclusive results are not listed. How the source made its calls: active means survival T/C of 150% or more; inactive means T/C below 125% in these data.

System: P388 leukemia ip, CD2F1 mice, survival T/C
Experiment: NCI In Vivo Anticancer Drug Screen. Data for tumor model P388 Leukemia (intraperitoneal) in CD2F1 (CDF1) mice
Settings: endpoint: median survival time, higher = longer survival
Outline: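 Mice carrying the transplanted tumor received test compound or vehicle. Survival was recorded in each group, and the value is the treated-group measurement divided by that of the vehicle-treated control group.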

[1] = dose: 200.0 mg/kg/injection, schedule: Q04DX003 (ip), vehicle: saline
[2] = dose: 400.0 mg/kg/injection, schedule: Q04DX003 (ip), vehicle: saline
[3] = dose: 50.0 mg/kg/injection, schedule: Q01DX005 (ip), vehicle: saline with Tween-80
[4] = dose: 100.0 mg/kg/injection, schedule: Q01DX005 (ip), vehicle: saline with Tween-80
[5] = dose: 200.0 mg/kg/injection, schedule: Q01DX005 (ip), vehicle: saline with Tween-80
[6] = dose: 50.0 mg/kg/injection, schedule: Q01DX009 (ip), vehicle: saline
[7] = dose: 100.0 mg/kg/injection, schedule: Q01DX009 (ip), vehicle: saline
[8] = dose: 200.0 mg/kg/injection, schedule: Q01DX009 (ip), vehicle: saline
[9] = dose: 50.0 mg/kg/injection, schedule: Q01DX005 (ip), vehicle: Klucel (hydroxypropylcellulose) (HPC)
[10] = dose: 100.0 mg/kg/injection, schedule: Q01DX005 (ip), vehicle: Klucel (hydroxypropylcellulose) (HPC)
[11] = dose: 200.0 mg/kg/injection, schedule: Q01DX005 (ip), vehicle: Klucel (hydroxypropylcellulose) (HPC)
[12] = dose: 100.0 mg/kg/injection, schedule: Q01DX009 (ip), vehicle: saline with Tween-80
[13] = dose: 200.0 mg/kg/injection, schedule: Q01DX009 (ip), vehicle: saline with Tween-80
[14] = dose: 400.0 mg/kg/injection, schedule: Q01DX009 (ip), vehicle: saline with Tween-80
[15] = dose: 50.0 mg/kg/injection, schedule: Q01DX009 (ip), vehicle: saline with Tween-80

Measured: T/C

CC(=N\O)/C(C)=N/O.CC(=N\O)/C(C)=N/O.[Cl][Rh][Cl]
inactive: [1] 100 % of control | [2] 95 % of control

O=c1c2ccccc2c(=O)c2c1ccc1[nH]c3c(ccc4c(=O)c5ccccc5c(=O)c43)[nH]c12
inactive: [3] 95 % of control | [4] 107 % of control | [5] 104 % of control

CCOP(O)(=S)OCC.[Tb]
inactive: dose: 100.0 mg/kg/injection, schedule: Q04DX003 (ip), vehicle: Klucel (hydroxypropylcellulose) (HPC) 92 % of control | dose: 200.0 mg/kg/injection, schedule: Q04DX003 (ip), vehicle: Klucel (hydroxypropylcellulose) (HPC) 87 % of control | dose: 400.0 mg/kg/injection, schedule: Q04DX003 (ip), vehicle: Klucel (hydroxypropylcellulose) (HPC) 90 % of control

NC1CCNC(O)[N-]1.NC1CCNC(O)[N-]1.[Cl][Pd][Cl] (stereo not given)
inactive: dose: 60.0 mg/kg/injection, schedule: Q01DX005 (ip), vehicle: Klucel (hydroxypropylcellulose) (HPC) 97 % of control | dose: 120.0 mg/kg/injection, schedule: Q01DX005 (ip), vehicle: Klucel (hydroxypropylcellulose) (HPC) 103 % of control | dose: 240.0 mg/kg/injection, schedule: Q01DX005 (ip), vehicle: Klucel (hydroxypropylcellulose) (HPC) 112 % of control

COC1CC(=O)C2(C)C3CCC4(C)C(C(C)C5CC(C)=C(CO)C(=O)O5)CCC4C3CC3OC32C1O (stereo not given)
inactive: dose: 10.12 mg/kg/injection, schedule: Q01DX009 (ip), vehicle: saline + alcohol 105 % of control | dose: 20.25 mg/kg/injection, schedule: Q01DX009 (ip), vehicle: saline + alcohol 96 % of control | dose: 40.5 mg/kg/injection, schedule: Q01DX009 (ip), vehicle: saline + alcohol 94 % of control

c1ccc(C2Oc3ccccc3-c3nc4ccccc4cc32)cc1 (stereo not given)
inactive: [3] 106 % of control | [4] 111 % of control | [5] 100 % of control

[O-][n+]1cc(Cl)cc(Cl)c1
inactive: dose: 25.0 mg/kg/injection, schedule: Q01DX009 (ip), vehicle: saline 100 % of control and 106 % of control | [6] 108 % of control and 96 % of control | [7] 100 % of control and 96 % of control | [8] 99 % of control and 102 % of control | dose: 400.0 mg/kg/injection, schedule: Q01DX009 (ip), vehicle: saline 99 % of control and 96 % of control

COC(=O)c1c(C(=O)OC)c(-c2ccccc2)n(CCn2c(-c3ccccc3)c(C(=O)OC)c(C(=O)OC)c2-c2ccccc2)c1-c1ccccc1
inactive: [9] 96 % of control | [10] 93 % of control | [11] 95 % of control

Cc1ccc2c(C)c3c(ccc4ccccc43)c[n+]2c1
inactive: dose: 2.5 mg/kg/injection, schedule: Q04DX003 (ip), vehicle: other 103 % of control | dose: 5.0 mg/kg/injection, schedule: Q04DX003 (ip), vehicle: other 101 % of control | dose: 10.0 mg/kg/injection, schedule: Q04DX003 (ip), vehicle: other 100 % of control | dose: 20.0 mg/kg/injection, schedule: Q04DX003 (ip), vehicle: other 104 % of control

Nc1nc(N)c2nc(-c3ccc([N+](=O)[O-])cc3)c(=O)[nH]c2n1
inactive: dose: 60.0 mg/kg/injection, schedule: Q01DX005 (ip), vehicle: saline with Tween-80 94 % of control | dose: 120.0 mg/kg/injection, schedule: Q01DX005 (ip), vehicle: saline with Tween-80 91 % of control | dose: 240.0 mg/kg/injection, schedule: Q01DX005 (ip), vehicle: saline with Tween-80 91 % of control

O=P(OCC(Br)CBr)(OCC(Br)CBr)OCC(Br)CBr (stereo not given)
inactive: [12] 112 % of control and 114 % of control | [13] 106 % of control and 109 % of control | [14] 103 % of control and 106 % of control | dose: 800.0 mg/kg/injection, schedule: Q01DX009 (ip), vehicle: saline with Tween-80 109 % of control and 94 % of control

Cc1nc(N)c(C#N)c(-c2ccccc2)c1-c1ccccc1
inactive: dose: 100.0 mg/kg/injection, schedule: Q01DX001 (ip), vehicle: saline with Tween-80 92 % of control | dose: 200.0 mg/kg/injection, schedule: Q01DX001 (ip), vehicle: saline with Tween-80 90 % of control | dose: 400.0 mg/kg/injection, schedule: Q01DX001 (ip), vehicle: saline with Tween-80 106 % of control

CC(=O)NCc1ccccc1N1CCCC1
inactive: dose: 100.0 mg/kg/injection, schedule: Q04DX003 (ip), vehicle: saline 101 % of control | [1] 106 % of control | [2] 101 % of control

N#C/C(=N\Nc1cccc(C(F)(F)F)c1)C(N)=O
inactive: [9] 103 % of control | [10] 115 % of control

O=C(Oc1ccc(Cl)cc1Cl)C(Cl)=C(Cl)Cl
inactive: [6] 97 % of control | [7] 111 % of control | [8] 101 % of control

CCCCc1ccc2nc(C)cc(N/N=C/c3ccc(OC)c4ccccc34)c2c1
inactive: dose: 12.5 mg/kg/injection, schedule: Q01DX005 (ip), vehicle: Klucel (hydroxypropylcellulose) (HPC) 100 % of control | dose: 25.0 mg/kg/injection, schedule: Q01DX005 (ip), vehicle: Klucel (hydroxypropylcellulose) (HPC) 98 % of control | [9] 87 % of control | [11] 100 % of control

OCC1OC(OC2C(CO)OC(S)C(O)C2O)C(O)C(O)C1O (stereo not given)
inactive: [15] 98 % of control | [12] 92 % of control | [13] 92 % of control

Cc1ccc(S(=O)(=O)O/N=C(/CC/C(=N\OS(=O)(=O)c2ccc(C)cc2)c2ccccc2)c2ccccc2)cc1
inactive: dose: 100.0 mg/kg/injection, schedule: Q04DX002 (ip), vehicle: saline with Tween-80 95 % of control | dose: 200.0 mg/kg/injection, schedule: Q04DX002 (ip), vehicle: saline with Tween-80 115 % of control | dose: 400.0 mg/kg/injection, schedule: Q04DX002 (ip), vehicle: saline with Tween-80 96 % of control

CCOc1ccc2nc3cc(N=Nc4ccc5c(N)c6cc(OCC)ccc6nc5c4)ccc3c(N)c2c1
inactive: dose: 25.0 mg/kg/injection, schedule: Q01DX009 (ip), vehicle: saline with Tween-80 98 % of control | [15] 108 % of control | [12] 120 % of control | [14] 120 % of control

O=C1C=C2OCOC2=CC1=O
inactive: dose: 4.38 mg/kg/injection, schedule: Q01DX005 (ip), vehicle: Klucel (hydroxypropylcellulose) (HPC) 100 % of control | dose: 8.75 mg/kg/injection, schedule: Q01DX005 (ip), vehicle: Klucel (hydroxypropylcellulose) (HPC) 99 % of control | dose: 17.5 mg/kg/injection, schedule: Q01DX005 (ip), vehicle: Klucel (hydroxypropylcellulose) (HPC) 103 % of control and 104 % of control

C=C1CC2(CC3C(CC2C)C3(C)C)OC1=O (stereo not given)
inactive: dose: 100.0 mg/kg/injection, schedule: Q01DX001 (ip), vehicle: saline 101 % of control | dose: 200.0 mg/kg/injection, schedule: Q01DX001 (ip), vehicle: saline 101 % of control | dose: 400.0 mg/kg/injection, schedule: Q01DX001 (ip), vehicle: saline 104 % of control

CC12CC3(C)CC(C)(C1)CC(Br)(C2)C3
inactive: dose: 50.0 mg/kg/injection, schedule: Q01DX009 (ip), vehicle: Klucel (hydroxypropylcellulose) (HPC) 100 % of control | dose: 100.0 mg/kg/injection, schedule: Q01DX009 (ip), vehicle: Klucel (hydroxypropylcellulose) (HPC) 99 % of control | dose: 200.0 mg/kg/injection, schedule: Q01DX009 (ip), vehicle: Klucel (hydroxypropylcellulose) (HPC) 97 % of control
